Measurements: US20170202802A1, “COMPOSITIONS, KITS AND METHODS FOR NUTRITION SUPPLEMENTATION” (Exeltis USA, Inc., priority 2016, published 2017)

Test: Double-blind, placebo controlled six-month study of nutritional status in pregnant and lactating women (Example 6)
Format: in vivo, human
Settings: co-administration of docusate sodium with supplements
Procedure: A study is undertaken to evaluate the effectiveness of the compositions of the present invention in the treatment of patients. The objective of the study is to determine whether oral intake of the compositions results in an improvement of the nutritional status of patients with regard to the specific vitamins and minerals contained in the administered compositions.
A double-blind, placebo controlled study is conducted over a six-month period. A total of 120 subjects (60 pregnant women entering the second trimester of pregnancy and 60 lactating women), aged 20-35 years, are chosen for the study. An initial assessment of the nutritional status of each woman is conducted. Vitamin A and vitamin B6 are measured using high performance liquid chromatography. […] Vitamin B2 levels are determined by assessment of erythrocyte glutathione reductase activity. Vitamin B3 levels are assessed by measuring urinary excretion of N′-methylnicotinamide and its pyridone. Vitamin B9 is measured by radioimmunoassay (RIA), specifically. […] Vitamin B12 is measured by RIA using human intrinsic factor as a binder and also by measuring serum levels of vitamin B12. Vitamin C levels are measured by spectrophotometric and colorimetric methods and also by measuring serum levels of Vitamin C. Vitamin D is measured using an extraction double-antibody RIA (Dia Sorin, Inc., Stillwater, Minn.). […] Iodine levels are measured by HPLC. […]

CCCCC(CC)COC(=O)CC(C(=O)OCC(CC)CCCC)S(=O)(=O)[O-].[Na+] (stereo not shown) [docusate sodium]
constipation that can result from iron supplementation (frequency of normal bowel movements before and after receiving supplements): mitigates constipation
